Experimental data taken from US8921107B2, “Method for differentiating human neural progenitor cells into dopaminergic neurons, and medium for differentiation thereof” (College of Medicine Pochon Cha University Industry-Academic …, priority 2010, dated 2014).
Entries after “also recorded” stand apart in the source; their conditions may differ.

Assays:
[1] = system: human neural progenitor cells (hNPCs); test: Substitution potential for SHH and FGF8 as differentiation-inducing agents; TH expression (FIG. 4); assay type: cell-based
Description: In order to evaluate substitution potential for the expensive SHH and FGF8 that are of limited use as a differentiation-inducing agent, hNPCs were proliferated in a DMEM/F12 (1:1) Glutamax medium. After induction of the differentiation in a Neurobasal (NB) medium (Invitrogen) using 2% of B-27, 200 ng/ml of SHH, 25 ng/ml of FGF8, 10 μM of forskolin, 100 μM of fusaric acid, and 100 μM of db-cAMP, the expression levels of TH were measured (FIG. 4).

[2] = system: human neural progenitor cells (hNPCs); test: Differentiation of hNPCs in NB medium with or without 100 μM fusaric acid; TH and Tuj1 expression, immunocytochemistry and RT-PCR (FIGS. 2, 3); assay type: cell-based; details: 100 μM fusaric acid added to NB medium with 2% B-27 minus-AO, 10 μM forskolin, 1 mM db-cAMP, versus without
Description: Total cellular RNAs were extracted from the hNPC, using Trizol and chloroform. cDNAs were synthesized from 500 ng of the total RNAs, using RNA Superscript II RTase, Oligo-d(T) primers, DTT and dNTPs, according to the manufacturer's protocol. The PCR was performed in a final volume of 20 μl containing 1 μl of cDNA and 1 μl of 10 pM primers, using a SYBR-Green mixture. The expressions of TH, DAT, GFAP, Nurr1, Tuj1, and Lmx1a were analyzed, using RPL22 as an internal control. The quantitative real-time PCR was performed using the LightCycler System. The amplification was monitored and analyzed through measuring the binding of the fluorescent dye SYBR Green to double-stranded DNA. The target DNAs were amplified by performing total 40 cycles, under the conditions at 95° C. for 10 seconds, at 60° C. for 10 seconds, at 72° C. for 20 seconds. Final extension was performed at 72° C. for 10 minutes. Results were expressed relative to the gene RPL-22 by comparative Ct method. The primers used in the PCR are described in Table 1. […]
hNPCs were proliferated in a DMEM/F12 (1:1) Glutamax medium, and then differentiated to neurons in a Neurobasal (NB) medium containing 2% of B-27 minus-AO supplement (GIBCO), 10 μM of forskolin, and 1 mM of db-cAMP, along with or without 100 μM of fusaric acid. After induction of the differentiation, the expression levels of TH and Tuj1 were measured (FIG. 2).

[3] = system: human neural progenitor cells (hNPCs); test: Differentiation of hNPCs into dopaminergic neurons in media with various additives; TH and Tuj1 counted with DAPI staining (FIG. 1); assay type: cell-based
Description: For dopaminergic differentiation, hNPCs were plated onto a culture dish pre-coated with 15 μg/ml of poly-L-ornithine and 4 μg/ml of fibronectin at a density of 30,000 cells/cm^2; and after 2 or 3 days the cells were cultured in a NB medium comprising differentiation-inducing agents such as 2% of B27 minus-AO supplement (GIBCO), 10 μM of forskolin, 1 mM of db-cAMP and […] of fusaric acid, at 37° C. for 7 days, unless otherwise described.
hNPCs were washed with PBS three times and then fixed with 4% paraformaldehyde in PBS for 10 minutes. The cells were washed with PBS three times and then blocked by reacting with 3% Normal goat serum, 0.2% Triton X-100 and 1% BSA in PBS at room temperature for 1 hour. […]
hNPCs were differentiated into dopaminergic neurons in media obtained by adding interleukin 1 beta, db-cAMP, and fusaric acid (Fus), in various concentrations and combinations, to a Neurobasal medium [differentiation medium (DM) control]. TH (a dopaminergic neuron marker) and Tuj1 (a neural marker) were measured through the DAPI staining (FIG. 1).

[4] = system: TH-expressing cells (dopaminergic neurons) differentiated from hNPCs; test: Neuroprotective effect: differentiation induced in the presence of MPP (FIG. 6); assay type: cell-based, human
Excerpt: It is known that 1-methyl-4-phenylpyridium (MPP) induces cytotoxicity on dopaminergic neurons. Therefore, we evaluated functions of fusaric acid during the differentiation, through inducing differentiation in the presence of MPP (FIG. 6).

[5] = system: human neural progenitor cells (hNPCs); test: Differentiation of hNPCs under hypoxia or normoxia; TH expression (FIG. 5); assay type: cell-based; details: NB medium with 2% B-27, 10 μM forskolin, 100 μM fusaric acid, 100 μM db-cAMP; 3% versus 21% oxygen partial pressure
Description: hNPCs were proliferated in a DMEM/F12 (1:1) Glutamax medium, and then differentiated in a Neurobasal (NB) medium (Invitrogen) containing 2% of B-27, 10 μM of forskolin, 100 μM of fusaric acid, and 100 μM of db-cAMP, under the hypoxia condition (3% of oxygen partial pressure) or the normoxia condition (21% of oxygen partial pressure). After induction of the differentiation, the expression levels of TH were measured (FIG. 5).

[6] = differentiation in medium containing fusaric acid, in the presence of MPP

CCCCc1ccc(C(=O)O)nc1 [fusaric acid, 5-butylpicolinic acid]
differentiation into dopaminergic neurons (TH expression) ([1]; 100 μM fusaric acid added in addition to 200 ng/ml SHH and 25 ng/ml FGF8): more increased
differentiation into dopaminergic neurons (TH expression) ([1]; 100 μM fusaric acid instead of SHH and FGF8, NB medium, 2% B-27, 10 μM forskolin, 100 μM db-cAMP): higher differentiation potential into dopaminergic neurons; also recorded: differentiated most effectively into dopaminergic neurons
expression of TH (dopaminergic neuron marker) [2]: remarkably high expressed
expression of Tuj1 (neuronal marker) [2]: also increased
expression levels of TH and Tuj1 (differentiation potential) ([3]; culture medium containing db-cAMP and fusaric acid, compared with other combinations (interleukin 1 beta, db-cAMP, fusaric acid) in Neurobasal medium): highest expression levels of TH and Tuj1
differentiation potential by concentration ([3]; db-cAMP and fusaric acid each at 100 μM): the highest differentiation potential was obtained
neuroprotective activity ([4]; conclusion from FIG. 6, MPP treatment): has neuroprotective activity
expression of Tuj1 under MPP treatment [4, 6]: relatively more expressed
survival of TH-expressing cells under MPP treatment [4, 6]: more TH-expressing cells survived
differentiation into dopaminergic neurons (TH expression), hypoxia versus normoxia [5]: differentiated more efficiently into dopaminergic neurons in hypoxia than in normoxia
